Assay results taken from patent US10125126B2, “N-cycloalkyl-N-[(heterocyclylphenyl)methylene]-(thio)carboxamide derivatives” (BAYER CROPSCIENCE AG, priority 2012, dated 2018).

Key:
[1] = tested on: Alternaria brassicae; assay: In vivo preventive test on Alternaria brassicae (leaf spot on radish); conditions: 500 ppm of active ingredient; radish plants; 6 days after contamination
Procedure: In Vivo Preventive Test on Alternaria brassicae (Leaf Spot on Radish) […] Radish plants (“Pernod Clair” variety), sown in starter cups on a 50/50 peat soil pozzolana substrate and grown at 17° C., are treated at the cotyledon stage by spraying with the active ingredient prepared as described above. Plants, used as controls, are treated with the mixture of acetone/tween/DMSO/water not containing the active material. After 24 hours, the plants are contaminated by spraying the cotyledons with an aqueous suspension of Alternaria brassicae spores (50 000 spores per mL). The spores are collected from a 15-day-old culture. The contaminated radish plants are incubated at 20° C. and at 100% relative humidity. Grading (% of efficacy) is carried out 6 days after the contamination, in comparison with the control plants.

[2] = tested on: Pyrenophora teres; assay: In vivo preventive test on Pyrenophora teres (barley); conditions: 500 ppm of active ingredient; barley plants; 14 days after contamination
How it was run: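 Barley ("Plaisant") grown at 22° C was sprayed at the 1-leaf stage (10 cm) with active ingredient in acetone/tween/DMSO/water, with solvent-only controls. After 24 h, leaves were inoculated with Pyrenophora teres spores (12 000 spores per mL) from 12-day cultures. % efficacy versus controls graded 14 days post-contamination.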

[3] = tested on: Sphaerotheca fuliginea; assay: In vivo preventive test on Sphaerotheca fuliginea (powdery mildew on cucurbits); conditions: Podosphaera fuliginea, 288 h, 500 ppm of active ingredient; gherkin plants; 12 days after contamination; read-out: Efficacy
How it was run: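 Gherkin plants ("Vert petit de Paris") grown at 24 °C were sprayed at cotyledon stage Z11; controls received acetone/tween/DMSO/water without active. Inoculation 24 h later by spraying cotyledons with 100 000 spores/mL. Efficacy (%) graded 12 days post-contamination versus controls.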

CC(C)c1ccc(-c2csc3ccccc23)cc1CN(C(=O)c1c(C(F)F)nn(C)c1F)C1CC1 [I.157, N-[5-(1-benzothiophen-3-yl)-2-isopropylbenzyl]-N-cyclopropyl-3-(difluoromethyl)-5-fluoro-1-methyl-1H-pyrazole-4-carboxamide]
Efficacy [1]: 100%
Efficacy [2]: 93%
pest or weed control at 500 ppm [3]: 100%
